# Values quoted from earlier work in patent publication US20230392195A1, “SYNTHETIC LETHALITY-MEDIATED PRECISION ONCOLOGY VIA TUMOR TRANSCRIPTOME” (The United States of America, as Represented by the …, priority 2020, published 2023).
# Test system: advanced solid tumors
# Settings: individual patient case: everolimus in an neuroendocrine cancer patient, cabozantinib in a colon cancer patient
smiles,measurement,value
CO[C@H]1C[C@@H]2CC[C@@H](C)[C@@](O)(O2)C(=O)C(=O)N2CCCC[C@H]2C(=O)O[C@H]([C@H](C)C[C@@H]2CC[C@@H](OCCO)[C@H](OC)C2)CC(=O)[C@H](C)/C=C(\C)[C@@H](O)[C@@H](OC)C(=O)[C@H](C)C[C@H](C)/C=C/C=C/C=C/1C [everolimus],response to the therapy in the trial,responded
